Experimental data from patent US9018212B2, “Pyridazine carboxamides as CCR2 receptor antagonists” (Boehringer Ingelheim International GmbH, priority 2010, dated 2015).

What follows are molecules tested against T1, CCR2 (Homo sapiens, UniProt P41597) (assay: CCR2 receptor membrane binding assay ([125I]MCP-1, THP-1 membranes, SPA beads)). Conditions: THP-1 cell membranes; [125I]MCP-1 displacement; bound radioactivity after 8 h; read-out: hKi.
T1 construct: Membranes were prepared from THP-1 cells; endogenous in cells; host or cells: THP-1 (human acute monocytic leukaemia cells), membrane preparation
T1 sequence (P41597 1-360 isoform P41597-2): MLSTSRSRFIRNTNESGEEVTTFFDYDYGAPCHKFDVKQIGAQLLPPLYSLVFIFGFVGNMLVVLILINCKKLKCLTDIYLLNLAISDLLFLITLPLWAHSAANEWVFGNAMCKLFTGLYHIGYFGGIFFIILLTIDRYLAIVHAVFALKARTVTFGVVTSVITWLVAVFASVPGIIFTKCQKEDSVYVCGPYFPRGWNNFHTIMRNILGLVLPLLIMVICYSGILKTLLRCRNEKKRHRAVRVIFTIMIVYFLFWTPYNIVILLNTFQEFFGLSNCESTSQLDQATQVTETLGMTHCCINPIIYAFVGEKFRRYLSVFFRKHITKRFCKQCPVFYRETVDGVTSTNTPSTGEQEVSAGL
Method: The above exemplary substances have been tested for binding to CCR2 using a binding assay as outlined herein below:
THP-1 cells (human acute monocytic leukaemia cells) were cultured under standardized conditions at 37° C. and 5% CO2 in a humidified incubator. THP-1 cells were cultivated in RPMI 1640 medium (Gibco 21875) containing 1% MEM-NEAA (Gibso 11140) 2 mM L-glutamine, 1.5 g/L sodium bicarbonate, 4.5 g/L glucose, 10 mM HEPES and 1.0 mM sodium pyruvate, 90%; 10% fetal calf serum (FCS Gibco 10500-064).
Membranes were prepared from THP-1 cells. THP-1 cells were centrifuged at 300×g at 4° C. for 10 min. The cell pellet was resuspended in Phosphate Buffer Saline (PBS, including 10 μM Pefabloc and a protease inhibitor mix ‘complete’, Boehringer Mannheim (1 tablet/50 ml)), to a concentration of […]. The membrane preparation was performed by disrupting the cells by nitrogen […] (at 50 bar, for 1 h) in a “Nitrogen Bombe” (Parr Instrument). Cell debris was removed by centrifugation (800×g at 4° C., 1 min). The supernatant was centrifuged at 80000×g, 4° C. for 30 min to sediment the cell membranes. Usually 50 mg of protein (Bradford assay) were yielded from 1×10E9 cells. The membranes were resuspended in 25 mM HEPES, 25 mM MgCl2, 1 mM CaCl2, 10% Glycerine for storage in aliquots at −80° C. in 25 mM HEPES, 25 mM MgCl2, 1 mM CaCl2, 10% Glycerine and stored at −80° C.
Perkin Elmer NEX 332 Jod 125 MCP-1, Stock: 2200 Ci/mmol solved in 2000 μl assay buffer, stored at −20° C. THP-1 membrane were adjusted with 25 mM HEPES, pH 7.2; 5 mM MgCl2; 0.5 mM CaCl2; 0.2% BSA assay buffer to a concentration of 2.5 μg/15 μl. Amersham Biosciences PVT-WGA Beads (RPNQ0001) were adjusted with assay buffer to a concentration of 0.24 mg/30 μl. For preparation of the membrane-bead-suspension membranes and beads were incubated for 30 min at RT under rotation (60 rpm) with a ratio of 1:2. Test compounds dissolved in 100% DMSO to a concentration of 10 mM and are further diluted with 100% DMSO to 1 mM. All additional compound dilutions were obtained with assay buffer, final 1% DMSO. Compounds, membrane-bead-suspension and [125I]MCP-1 (ca. 25000 cpm/10 μl) were incubated. Bound radioactivity was determined by scintillation counter after 8 h. Determination of affinity of test compounds (dissociation constant hKi) is calculated by iterative fitting of experimental data using the “easy sys” program, which is based on law of mass action (Schittkowski K. (1994), Numerische Mathematik, Vol. 68, 129-142).

Ki [nM]	SMILES
40	COc1nnc(C(=O)N2CCC(NC3CCOCC3OC)CC2)c(C)c1NCc1ccc(C(C)(C)C)cc1 (centres unmarked) [Example 2]
41	Cc1c(Nc2ccc(Cl)c(Cl)c2)cnnc1C(=O)N1CCC(NC2CCOCC2F)CC1 (centres unmarked) [Example 21]
4	CO[C@@H]1COCC[C@@H]1NC1CCN(C(=O)c2nncc(Nc3ccc(Cl)c(Cl)c3)c2C)CC1 [Example 22]
1	COc1nnc(C(=O)N2CCC(N[C@H]3CCOC[C@H]3OC)CC2)c(C)c1NC[C@H]1CCC[C@@H](c2ccc(C(F)(F)F)cc2)O1 [Example 7]
5	Cc1c(NC[C@H]2CCC[C@@H](c3ccc(OC(F)(F)F)cc3)O2)cnnc1C(=O)N1CCC(NC2CCOCC2F)CC1 (some centres unmarked) [Example 14]
3	CO[C@@H]1COCC[C@@H]1NC1CCN(C(=O)c2nncc(NC[C@H]3CCC[C@@H](c4ccc(C(F)(F)F)cc4)O3)c2C)CC1 [Example 16]
3	COc1nnc(C(=O)N2CCC(N[C@H]3CCOC[C@H]3OC)CC2)c(C)c1NC[C@H]1CCC[C@@H](c2ccc(OC(F)(F)F)cc2)O1 [Example 5]
0.7	CO[C@@H]1COCC[C@@H]1NC1CCN(C(=O)c2nncc(NC[C@H]3CCC[C@@H](c4ccc(OC(F)(F)F)cc4)O3)c2C)CC1 [Example 12]
6	CO[C@H]1COCC[C@H]1NC1CCN(C(=O)c2nncc(NC[C@H]3CCC[C@@H](c4ccc(C(F)(F)F)cc4)O3)c2C)CC1 [Example 15]
4	COc1nnc(C(=O)N2CCC(N[C@@H]3CCOC[C@@H]3OC)CC2)c(C)c1NC[C@H]1CCC[C@@H](c2ccc(C)cc2)O1 [Example 6]
128	COC1COCCC1NC1CCN(C(=O)c2nnc(C)c(NCc3ccc(C(C)(C)C)cc3)c2C)CC1 (centres unmarked) [Example 23]

The next lines start with the molecule.

SMILES	Ki [nM]
Cc1c(NC[C@H]2CCC[C@@H](c3ccccc3)C2)cnnc1C(=O)N1CCC(NC2CCOCC2F)CC1 (some centres unmarked) [Example 18]	7
Cc1ccc([C@@H]2CCC[C@H](CNc3cnnc(C(=O)N4CCC(NC5CCOCC5F)CC4)c3C)O2)cc1 (some centres unmarked) [Example 13]	35
COC1COCCC1NC1CCN(C(=O)c2nncc(NCc3ccc(C(C)(C)C)cc3)c2C)CC1 (centres unmarked) [Example 9]	27
Cc1c(NC[C@H]2CCC[C@@H](c3ccc(C(F)(F)F)cc3)O2)cnnc1C(=O)N1CCC(NC2CCOCC2F)CC1 (some centres unmarked) [Example 19]	9
COc1nnc(C(=O)N2CCC(N[C@H]3CCOC[C@H]3OC)CC2)c(C)c1N1CCc2ccc(C(F)(F)F)cc2C1 [Example 4]	10
Cc1c(N2CCc3ccc(C(F)(F)F)cc3C2)cnnc1C(=O)N1CCC(NC2CCOCC2F)CC1 (centres unmarked) [Example 20]	54
COc1nnc(C(=O)N2CCC(N[C@@H]3CCOC[C@@H]3OC)CC2)c(C)c1NC[C@H]1CCC[C@@H](c2ccc(C(F)(F)F)cc2)O1 [Example 8]	2
CO[C@@H]1COCC[C@@H]1NC1CCN(C(=O)c2nncc(N3CCc4ccc(C(F)(F)F)cc4C3)c2C)CC1 [Example 11]	16
COc1nnc(C(=O)N2CCC(N3CCC(N(C)S(C)(=O)=O)CC3)CC2)c(C)c1NCc1ccc(C(C)(C)C)cc1 [Example 1]	60
CO[C@@H]1COCC[C@@H]1NC1CCN(C(=O)c2nncc(NC[C@H]3CCC[C@@H](c4ccccc4)C3)c2C)CC1 [Example 10]	3
COc1nnc(C(=O)N2CCC(N[C@H]3CCOC[C@H]3OC)CC2)c(C)c1NC[C@H]1CCC[C@@H](c2ccccc2)C1 [Example 3]	1
CO[C@H]1COCC[C@H]1NC1CCN(C(=O)c2nncc(N3CCc4ccc(C(F)(F)F)cc4C3)c2C)CC1 [Example 17]	73
